Measured values from EP1266900A1, “Carbamates of rapamycin” (Wyeth, priority 1992, dated 1994).
Where “and” joins values, the source holds several entries; their conditions need not be identical. Equal values may be shown once. Where a name gives a salt, the structure may show the parent alone. Read-outs that look alike come from different tables or passages of the source.

How the values were obtained:
[1] = test system: cells from the thymus of normal BALB/c mice; experiment: comitogen-induced thymocyte proliferation procedure (LAF); format: cell-based; conditions: for IC50: thymocytes cultured for 72 hours with PHA and IL-1, tritiated thymidine incorporation, read-out: LAF IC50; for LAF (ratio): ratio compared with rapamycin, greater than 1 = inhibited thymocyte proliferation to a greater extent than rapamycin
Experimental: (§1) Immunosuppressive activity for representative compounds of this invention was evaluated in an in vitro standard pharmacological test procedure to measure lymphocyte proliferation (LAF) and in an in vivo standard pharmacological test procedure which evaluated the survival time of a pinch skin graft.
The comitogen-induced thymocyte proliferation procedure (LAF) was used as an in vitro measure of the immunosuppressive effects of representative compounds. Briefly, cells from the thymus of normal BALB/c mice are cultured for 72 hours with PHA and IL-1 and pulsed with tritiated thymidine during the last six hours. Cells are cultured with and without various concentrations of rapamycin, cyclosporin A, or test compound. Cells are harvested and incorporated radioactivity is determined. Inhibition of lymphoproliferation is assessed as percent change in counts per minute from non-drug treated controls. For each compound evaluated, rapamycin was also evaluated for the purpose of comparison. An IC50 was obtained for each test compound as well as for rapamycin. […] A positive ratio indicates immunosuppressive activity. […] Calculation of the ratio is shown below. (()^3 H-control thymus cells -)/(()^3 H-control thymus cells -)(()^3 H-rapamycin-treated thymus cells)/(()^3 H-test compound-treated cells) [formula]

[2] = test system: pinch skin graft; experiment: pinch skin graft survival time, in vivo; design: species or system male C3H(H-2K) recipients; conditions: dose of 4 mg/kg, intraperitoneally or orally, untreated grafts usually rejected within 6-7 days
Experimental: as §1
Representative compounds of this invention were also evaluated in an in vivo test procedure designed to determine the survival time of pinch skin graft from male BAB/c donors transplanted to male C3H(H-2K) recipients. The method is adapted from Billingham R.E. and Medawar P.B., J. Exp. Biol. 28:385-402, (1951). Briefly, a pinch skin graft from the donor was grafted on the dorsum of the recipient as a allograft, and an isograft was used as control in the same region. The recipients were treated with either varying concentrations of test compounds intraperitoneally or orally. Rapamycin was used as a test control. Untreated recipients serve as rejection control. The graft was monitored daily and observations were recorded until the graft became dry and formed a blackened scab. This was considered as the rejection day. The mean graft survival time (number of days ± S.D.) of the drug treatment group was compared with the control group. […] Results are expressed as the mean survival time in days. Untreated (control) pinch skin grafts are usually rejected within 6-7 days. The results shown in Table 1 are based on a dose of 4 mg/kg of test compound. A survival time of 12.0 ± 1.7 days was obtained for rapamycin at 4 mg/kg.

Row | Structure (SMILES) | IC50 ([1]; Mus musculus, Thymocyte, 72 h) [nM] | LAF (ratio) [1] | also measured
1 | CO[C@H]1C[C@@H]2CC[C@@H](C)[C@@](O)(O2)C(=O)C(=O)N2CCCC[C@H]2C(=O)O[C@H]([C@H](C)C[C@@H]2CC[C@@H](OC(N)=O)[C@H](OC)C2)CC(=O)[C@H](C)/C=C(\C)[C@@H](O)[C@@H](OC)C(=O)[C@H](C)C[C@H](C)/C=C/C=C/C=C/1C [Example 1, Rapamycin 42-ester with carbamic acid] | 1.7 | 1.29 | Skin Graft (days ± SD), mean survival time [2]: 11.7 ± 0.5 days
2 | CO[C@H]1C[C@@H]2CC[C@@H](C)[C@@](O)(O2)C(=O)C(=O)N2CCCC[C@H]2C(=O)O[C@H]([C@H](C)C[C@@H]2CC[C@@H](OC(=O)NCCO)[C@H](OC)C2)CC(=O)[C@H](C)/C=C(\C)[C@@H](O)[C@@H](OC)C(=O)[C@H](C)C[C@H](C)/C=C/C=C/C=C/1C [Example 2, Rapamycin 42-ester with 2-hydroxyethyl carbamic acid] | – | 1.22 and 1.09 | Skin Graft (days ± SD), mean survival time [2]: 10.3 ± 0.8 days
3 | CO[C@H]1C[C@@H]2CC[C@@H](C)[C@@](O)(O2)C(=O)C(=O)N2CCCC[C@H]2C(=O)O[C@H]([C@H](C)C[C@@H]2CC[C@@H](OC(=O)NCCN(C)C)[C@H](OC)C2)CC(=O)[C@H](C)/C=C(\C)[C@@H](O)[C@@H](OC)C(=O)[C@H](C)C[C@H](C)/C=C/C=C/C=C/1C [Example 3, Rapamycin 42-ester with 2-(dimethylamino)ethyl carbamic acid] | 6.5 | 0.34 | –
4 | CO[C@H]1C[C@@H]2CC[C@@H](C)[C@@](O)(O2)C(=O)C(=O)N2CCCC[C@H]2C(=O)O[C@H]([C@H](C)C[C@@H]2CC[C@@H](OC(=O)NN)[C@H](OC)C2)CC(=O)[C@H](C)/C=C(\C)[C@@H](O)[C@@H](OC)C(=O)[C@H](C)C[C@H](C)/C=C/C=C/C=C/1C [Example 4, Rapamycin 42-ester with aminocarbamic acid] | 10 | 0.45 | Skin Graft (days ± SD), mean survival time [2]: 9.8 ± 0.8 days
5 | CO[C@H]1C[C@@H]2CC[C@@H](C)[C@@](O)(O2)C(=O)C(=O)N2CCCC[C@H]2C(=O)O[C@H]([C@H](C)C[C@@H]2CC[C@@H](OC(=O)NO)[C@H](OC)C2)CC(=O)[C@H](C)/C=C(\C)[C@@H](O)[C@@H](OC)C(=O)[C@H](C)C[C@H](C)/C=C/C=C/C=C/1C [Example 5, Rapamycin 42-ester with hydroxycarbamic acid] | 2.1 | 1.19 | –
6 | CO[C@H]1C[C@@H]2CC[C@@H](C)[C@@](O)(O2)C(=O)C(=O)N2CCCC[C@H]2C(=O)O[C@H]([C@H](C)C[C@@H]2CC[C@@H](OC(=O)NCCc3ccccn3)[C@H](OC)C2)CC(=O)[C@H](C)/C=C(\C)[C@@H](O)[C@@H](OC)C(=O)[C@H](C)C[C@H](C)/C=C/C=C/C=C/1C [Example 6, Rapamycin 42-ester with 2-(pyridin-2-yl)-ethyl carbamic acid] | – | 5.1 | IC50 [1]: 0.8 nM; Skin Graft (days ± SD), mean survival time ([2]; 4 mg/kg): 11.40 ± 0.6 days
7 | CO[C@H]1C[C@@H]2CC[C@@H](C)[C@@](O)(O2)C(=O)C(=O)N2CCCC[C@H]2C(=O)O[C@H]([C@H](C)C[C@@H]2CC[C@@H](OC(=O)NCCc3ccccn3)[C@H](OC)C2)CC(=O)[C@H](C)/C=C(\C)[C@@H](O)[C@@H](OC)C(=O)[C@H](C)C[C@H](C)/C=C/C=C/C=C/1C [Example 7, Rapamycin 42-ester with 2-(pyridin-2-yl)-ethyl carbamic acid hydrochloride salt] | – | – | LAF (ratio) ([1]; hydrochloride salt): 2.3; IC50 ([1]; hydrochloride salt): 1.2 nM; Skin Graft (days ± SD), mean survival time ([2]; hydrochloride salt, 4 mg/kg): 10.33 ± 0.5 days
8 | CO[C@H]1C[C@@H]2CC[C@@H](C)[C@@](O)(O2)C(=O)C(=O)N2CCCC[C@H]2C(=O)O[C@H]([C@H](C)C[C@@H]2CC[C@@H](OC(=O)NCCc3ccccn3)[C@H](OC)C2)CC(=O)[C@H](C)/C=C(\C)[C@@H](O)[C@@H](OC)C(=O)[C@H](C)C[C@H](C)/C=C/C=C/C=C/1C [Example 8, Rapamycin 42-ester with 2-(pyridin-2-yl)ethylcarbamic acid methanesulfonate salt] | – | – | LAF (ratio) ([1]; methanesulfonate salt): 4.4; IC50 ([1]; methanesulfonate salt): 0.2 nM
9 | CO[C@H]1C[C@@H]2CC[C@@H](C)[C@@](O)(O2)C(=O)C(=O)N2CCCC[C@H]2C(=O)O[C@H]([C@H](C)C[C@@H]2CC[C@@H](OC(=O)NCc3ccccn3)[C@H](OC)C2)CC(=O)[C@H](C)/C=C(\C)[C@@H](O)[C@@H](OC)C(=O)[C@H](C)C[C@H](C)/C=C/C=C/C=C/1C [Example 10, Rapamycin 42-ester with 2-pyridinylmethyl carbamic acid] | 0.1 | 3.8 | Skin Graft (days ± SD), mean survival time [2]: 10.17 ± 1.0 days
10 | CO[C@H]1C[C@@H]2CC[C@@H](C)[C@@](O)(O2)C(=O)C(=O)N2CCCC[C@H]2C(=O)O[C@H]([C@H](C)C[C@@H]2CC[C@@H](OC(=O)NCc3cccnc3)[C@H](OC)C2)CC(=O)[C@H](C)/C=C(\C)[C@@H](O)[C@@H](OC)C(=O)[C@H](C)C[C@H](C)/C=C/C=C/C=C/1C [Example 12, Rapamycin 42-ester with 3-pyridinylmethyl carbamic acid] | 1.1 | 3.8 | Skin Graft (days ± SD), mean survival time ([2]; 4 mg/kg): 9.80 ± 1.1 days
11 | CO[C@H]1C[C@@H]2CC[C@@H](C)[C@@](O)(O2)C(=O)C(=O)N2CCCC[C@H]2C(=O)O[C@H]([C@H](C)C[C@@H]2CC[C@@H](OC(=O)N3CCN(CCCO)CC3)[C@H](OC)C2)CC(=O)[C@H](C)/C=C(\C)[C@@H](O)[C@@H](OC)C(=O)[C@H](C)C[C@H](C)/C=C/C=C/C=C/1C [Example 23, Rapamycin 42-ester with 4-(3-hydroxypropyl)piperazine-1-carboxylic acid] | 3.4 | 1.4 | –
12 | CO[C@H]1C[C@@H]2CC[C@@H](C)[C@@](O)(O2)C(=O)C(=O)N2CCCC[C@H]2C(=O)O[C@H]([C@H](C)C[C@@H]2CC[C@@H](OC(=O)NCCCN(CCO)CCO)[C@H](OC)C2)CC(=O)[C@H](C)/C=C(\C)[C@@H](O)[C@@H](OC)C(=O)[C@H](C)C[C@H](C)/C=C/C=C/C=C/1C [Example 24, Rapamycin 42-ester with [3-[bis(2-hydroxyethyl)amino]propyl]carbamic acid] | 40 | 0.1 | –
13 | CO[C@H]1C[C@@H]2CC[C@@H](C)[C@@](O)(O2)C(=O)C(=O)N2CCCC[C@H]2C(=O)O[C@H]([C@H](C)C[C@@H]2CC[C@@H](OC(=O)N3CCOCC3)[C@H](OC)C2)CC(=O)[C@H](C)/C=C(\C)[C@@H](O)[C@@H](OC)C(=O)[C@H](C)C[C@H](C)/C=C/C=C/C=C/1C [Example 26, Rapamycin 42-ester with morpholine-4-carboxylic acid] | 0.2 | 6.2 | –
14 | CO[C@H]1C[C@@H]2CC[C@@H](C)[C@@](O)(O2)C(=O)C(=O)N2CCCC[C@H]2C(=O)O[C@H]([C@H](C)C[C@@H]2CC[C@@H](OC(=O)N3CCN(C)CC3)[C@H](OC)C2)CC(=O)[C@H](C)/C=C(\C)[C@@H](O)[C@@H](OC)C(=O)[C@H](C)C[C@H](C)/C=C/C=C/C=C/1C [Example 27, Rapamycin 42-ester with 4-methylpiperazine-1-carboxylic acid] | 1.2 | 1.2 | –
15 | CO[C@H]1C[C@@H]2CC[C@@H](C)[C@@](O)(O2)C(=O)C(=O)N2CCCC[C@H]2C(=O)O[C@H]([C@H](C)C[C@@H]2CC[C@@H](OC(=O)N3CCNCC3)[C@H](OC)C2)CC(=O)[C@H](C)/C=C(\C)[C@@H](O)[C@@H](OC)C(=O)[C@H](C)C[C@H](C)/C=C/C=C/C=C/1C [Example 28, Rapamycin 42-ester with piperazine-1-carboxylic acid] | 4.2 | 1.1 | –
